pIC50: −log10 of the molar value. Read-outs that look alike come from different tables or passages of the source.
Columns and labels:
[1] = system: P. berghei ookinete development; details: for % inhibition, Replicate A / % inhibition, Replicate B: primary screen at 1 μM
[2] = system: 3D7-strain P. falciparum asexual parasites; experiment: P. falciparum asexual growth inhibition assay (Pf GIA); format: cell-based, Plasmodium falciparum; details: dose response confirmation; read-out: Pf asexual growth inhibition assays IC50
Summary of the method: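 Read-out was lactate dehydrogenase activity measured by absorbance at 650 nm after freezing and thawing, against 50 μM chloroquine and DMSO controls. Before that, asexual 3D7 cultures (0.25% parasitemia, 2% hematocrit) had 72 h dose-response compound exposure at 37°C in 5% CO2/5% O2/90% N2; three independent replicates averaged.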

[3] = system: HepG2 cells; experiment: HepG2 cytotoxicity assay; details: for pIC50: read-out: HepG2 cytotoxicity assay IC50, dose response confirmation; for Pb ODA (this manuscript) HepG2 cytoxicity: HepG2 cytotoxicity listed with the Pb ODA data set (this manuscript)
Summary of the method: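 Percent inhibition derived from fluorescent viability readout, normalised to DMSO (negative) and 50 μM doxorubicin (positive). Compound incubation lasted 48 h at 37°C, 5% CO2, with 2,500 HepG2 cells/well in MEM plus 10% FBS and 1% NEAA.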

[4] = read-out: Pb Ookinete development assay IC50, dose response confirmation
[5] = HepG2 values of the three screens unified
[6] = read-out: Pb ODA IC50, this manuscript
[7] = unified HepG2 value across the three screens
[8] = read-out: Pb ODA (this manuscript) IC50, P. berghei ookinete development assay, this manuscript

Row | SMILES | Is compound selective in assay? Pb ODA active? ([1]; 1: YES, 0: NO) | % inhibition, Replicate A [1] [%] | % inhibition, Replicate B [1] [%] | pIC50 [1, 4] | pIC50 [2] | HepG2 cytoxicity (Pb ODA, this manuscript) [3] [µM] | Unified cytotox [3, 5] [µM] | pIC50 [3] | pIC50 [1, 6] | Unified cytotox [3, 7] [µM] | Is compound selective in assay? Pb ODA active? [1] | pIC50 [1, 8] | Pb ODA (this manuscript) HepG2 cytoxicity [3] [µM]
1 | COc1ccc2nccc([C@@H](O)CN3C4CCC3CC(NCc3ccc5c(n3)NC(=O)CS5)C4)c2n1.Cl (some centres unmarked) [TCMDC-134697] | 0 (0: NO) | 46.01 | 53.20 | 5.40 | 5.97 | 38.90 | 38.90 | 4.41 | – | – | – | – | –
2 | COc1cc(OC)cc(-c2nn(-c3ccc([N+](=O)[O-])cc3C#N)c(=S)n2Cc2ccco2)c1 [TCMDC-134715] | 1 (1: YES) | 26.66 | 59.14 | 5.80 | 6.13 | – | – | 4.00 | 5.80 | 100.00 | – | – | –
3 | N#Cc1cc([N+](=O)[O-])ccc1-n1nc(C(N)=O)n(Cc2cccc(F)c2)c1=S [TCMDC-134721] | 1 (1: YES) | 66.73 | 70.30 | 5.95 | 6.19 | – | – | 4.46 | 5.95 | 34.67 | – | – | –
4 | Cc1[nH]c(C)c(-c2ccc(-c3ccc(OC(F)(F)F)cc3)cc2)c(=O)c1Br [TCMDC-134726] | – | 101.74 | 103.66 | 7.59 | 7.72 | – | – | 5.11 | – | – | 1 (key: 1: YES; 0: NO) | 7.59 | 7.76
5 | Cc1[nH]c(C)c(-c2ccc(Oc3ccc(F)cc3)cc2)c(=O)c1Cl [TCMDC-134728] | 1 (1: YES) | 96.35 | 103.17 | 7.31 | 7.72 | 56.23 | 56.23 | 4.25 | 7.30 | – | – | – | –
6 | C/C=C/COc1ccc(-c2c(C)[nH]c(C)c(Cl)c2=O)cc1 [TCMDC-134729] | 1 (1: YES) | 83.52 | 96.22 | 6.33 | 6.55 | – | 100.00 | 4.00 | 6.33 | – | – | – | –
7 | COc1ccc2nccc([C@@H](O)CN3CCC(NC(=O)c4cc5c(F)cc(F)cc5[nH]4)CC3)c2n1 [TCMDC-134945] | – | 54.14 | 76.92 | 6.38 | 6.11 | – | – | 4.98 | – | – | 1 (key: 1: YES; 0: NO) | 6.38 | 10.47
8 | Cc1cccc(Nc2nc(NCCCCN)nc3cc[nH]c(=O)c23)c1.O=C(O)C(F)(F)F [TCMDC-134946] | 0 (0: NO) | 57.54 | 45.06 | 5.51 | 6.31 | – | – | 4.54 | 5.51 | 28.84 | – | – | –
9 | CC1CN(Cc2cccc(C#N)c2)CCN1c1ccc(NC(=O)c2cccs2)cc1.O=C(O)C(F)(F)F (centres unmarked) [TCMDC-134969] | – | 50.06 | 40.18 | 5.79 | 7.11 | – | – | 5.52 | – | – | 0 (key: 1: YES; 0: NO) | – | 3.02
10 | CCC(C)CN1CCN(c2ccc(NC(=O)c3cccs3)cc2)C(C)C1.O=C(O)C(F)(F)F (centres unmarked) [TCMDC-134996] | – | 97.72 | 83.44 | 5.98 | 6.12 | – | – | 4.22 | – | – | 1 (key: 1: YES; 0: NO) | – | 60.26
11 | CC1CN(Cc2ccccc2)CCN1c1ccc(NC(=O)c2cccs2)cc1.O=C(O)C(F)(F)F (centres unmarked) [TCMDC-135005] | – | 105.18 | 99.00 | 6.14 | 6.30 | – | – | 4.24 | – | – | 1 (key: 1: YES; 0: NO) | 6.14 | 57.54
12 | CC1CN(Cc2cccc(F)c2)CCN1c1ccc(NC(=O)c2cccs2)cc1.O=C(O)C(F)(F)F (centres unmarked) [TCMDC-135009] | – | 59.80 | 66.69 | 6.38 | 6.62 | – | – | 3.92 | – | – | 1 (key: 1: YES; 0: NO) | – | 120.23
13 | O=C(Nc1ccc(N2CCCN(Cc3cccc(F)c3)CC2)cc1)c1cccs1.O=C(O)C(F)(F)F [TCMDC-135012] | – | 50.47 | 51.73 | 5.72 | 6.19 | – | – | 4.11 | – | – | 1 (key: 1: YES; 0: NO) | 5.72 | 78.52
14 | CN(Cc1cccc(F)c1)C1CCN(c2cc(NC(=O)c3ccc(F)cc3)ccn2)CC1.O=C(O)C(F)(F)F [TCMDC-135018] | 0 (0: NO) | 54.82 | 42.75 | 5.22 | 7.51 | – | – | 6.85 | 5.22 | 0.14 | – | – | –
15 | O=C(O)C(F)(F)F.O=c1[nH]ccc2nc(N[C@@H]3CCCNC3)nc(Nc3ccc(S(=O)(=O)N4CCOCC4)cc3)c12 [TCMDC-135038] | 1 (1: YES) | 53.41 | 58.16 | 5.81 | 6.46 | – | – | 4.34 | 5.81 | 45.71 | – | – | –
16 | C=CCOc1ccc(-c2c(C)[nH]c(C)c(Br)c2=O)cc1 [TCMDC-135042] | – | 92.87 | 107.55 | 6.15 | 6.65 | – | – | 5.15 | – | – | 1 (key: 1: YES; 0: NO) | – | 7.08
17 | COCCn1c(-c2cccc(Cl)c2)nn(-c2ccc([N+](=O)[O-])cc2Cl)c1=S [TCMDC-135130] | 1 (1: YES) | 51.94 | 48.77 | 5.80 | 6.02 | – | – | 4.00 | – | 100.00 | – | – | –
18 | COc1ccc2ncc(C#N)c(CCN3C4CCC3CC(NCc3ccc5c(n3)NC(=O)CS5)C4)c2c1.Cl (centres unmarked) [TCMDC-135180] | 0 (0: NO) | 66.14 | 72.52 | 5.51 | 6.20 | 6.46 | 6.46 | 5.19 | 5.51 | – | – | – | –
19 | C#C[C@H]1O[C@@H](n2cnc3c(Nc4cc(Br)cc(C(F)(F)F)c4)ncnc32)[C@H](O)[C@@H]1O [TCMDC-135185] | 1 (1: YES) | 92.13 | 83.74 | 6.27 | 5.47 | – | – | 4.24 | 6.28 | 57.54 | – | – | –
20 | COc1ccc2ncc(C#N)c(CCN3CCC(NCc4ccc5c(n4)NC(=O)CS5)CC3)c2n1.Cl [TCMDC-135188] | 1 (1: YES) | 67.48 | 73.91 | 6.11 | 5.63 | 54.95 | 54.95 | 4.26 | 6.11 | – | – | – | –
21 | COc1c(C)[nH]c(C)c(-c2ccc(Oc3cccc(C(F)(F)F)c3)cc2)c1=O [TCMDC-135253] | – | 56.53 | 75.40 | 5.44 | 6.03 | – | – | 5.89 | – | – | 0 (key: 1: YES; 0: NO) | 5.44 | 1.30
22 | Cc1[nH]c(C)c(-c2ccc(OCc3ccc(OC(F)(F)F)cc3)nc2)c(=O)c1Br [TCMDC-135254] | 1 (1: YES) | 57.86 | 80.15 | 5.77 | 6.91 | 87.10 | 87.10 | 4.06 | 5.77 | – | – | – | –
23 | Cc1[nH]c(C)c(-c2ccc(OCc3ccc(OC(F)(F)F)cc3)nc2)c(=O)c1Cl [TCMDC-135271] | 1 (1: YES) | 71.19 | 76.52 | 5.97 | 7.17 | – | 100.00 | 4.00 | 5.97 | – | – | – | –
24 | COc1cc(NC2=C(c3ccccc3)C(=O)c3ccccc32)ccn1 [TCMDC-135283] | – | 80.47 | 74.75 | 6.13 | 6.54 | – | – | 4.00 | – | – | 1 (key: 1: YES; 0: NO) | 6.13 | 100.00

Source: article PMC6753678, “Fueling Open Innovation for Malaria Transmission-Blocking Drugs: Hundreds of Molecules Targeting Early Parasite Mosquito Stages” (Frontiers in Microbiology, 2019)
